≈ marks a conversion by molar mass, not a printed value. Like-named read-outs stand apart in the source and are kept apart here.
Legend:
HeLa (cervical cancer) = assay: MTT cell viability assay; assay type: cell-based; conditions: Homo sapiens, 72 h incubation, mean ± SD
Protocol: (§1) Analysis was performed using the MTT test and 72 h of incubation.
(§2) All chemicals were obtained from Sigma-Aldrich (St. Louis, MO, USA). The MCF-7 and HeLa cell lines were purchased from Cell Lines Services (Eppelheim, Germany), the HCT-116 cell line was purchased from ATCC (ATCC-No: CCL-247). Cells were cultured in Dulbecco’s modified Eagle’s medium (DMEM) supplemented with 10% fetal bovine serum, 2 mM glutamine, 100 units/mL penicillin, and 100 μg/mL streptomycin. Cultures were held in an incubator (Heraceus, HeraCell) in a humidified atmosphere with 5% CO2 at 37 °C.
(§3) Cell viability was evaluated using the MTT (3-(4,5-dimethylthiazol-2-yl)-2,5-diphenyltetrazolium bromide) assay. Stock solutions of the studied compounds were obtained in 100% DMSO. […] Cells at a density of 5 × 10^3 cells/well, seeded in 96-well plates, were treated for 72 h with the tested compounds in the concentration range 1–100 μM (1, 10, 25, 50 and 100 μM). After treatment, cells were incubated for 2 h with MTT (0.5 mg/mL) at 37 °C. Cells were lysed with DMSO and the absorbance of the formazan solution was measured at 550 nm with a plate reader (1420 multilabel counter, Victor, Jügesheim, Germany). Values are expressed as the mean ± SD of at least three independent experiments conducted in triplicate.

MCF-7 (breast cancer) = assay: MTT cell viability assay; assay type: cell-based; conditions: Homo sapiens, MCF7, 72 h incubation, mean ± SD
Protocol: as §1, §2, §3

HCT-116 (colon cancer) = assay: MTT cell viability assay; assay type: cell-based; conditions: Homo sapiens, 72 h incubation, mean ± SD
Protocol: as §1, §2, §3

[1] = test system: Enterococcus faecalis ATCC 11420; assay: Broth dilution MIC/MBC, reference strain; assay type: cell-based
Procedure, shortened: (§4)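 Inhibitory and cidal endpoints rely on a serial dilution method run in triplicate. Growth inhibition is scored after 18 h at 37 °C (5 × 10^5 cfu/mL, MHB2), and cidal values after transfer to TSA with 48 h further incubation.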

[2] = test system: Staphylococcus aureus ATCC 6538 (MSSA); assay: Broth dilution MIC/MBC, reference strain; assay type: cell-based
Procedure, shortened: as §4

[3] = test system: Escherichia coli ATCC 11229; assay: Broth dilution MIC/MBC, reference strain; assay type: cell-based
Procedure, shortened: as §4

[4] = test system: Proteus vulgaris NCTC 4635; assay: Broth dilution MIC/MBC, reference strain; assay type: cell-based
Procedure, shortened: as §4

[5] = test system: Pseudomonas aeruginosa ATCC 15442; assay: Broth dilution MIC/MBC, reference strain; assay type: cell-based
Procedure, shortened: as §4

[6] = test system: Gram-positive reference strains; assay: Broth dilution MIC/MBC, summary over Gram-positive reference strains; assay type: cell-based; conditions: summary over the Gram-positive reference strains (Table 1)
Protocol: […]. The tests were carried out using a serial dilution method, allowing the determination of MIC (minimal concentration inhibiting bacterial growth), MBC (minimal bactericidal concentration), and MFC (minimal fungicidal concentration) values.
(§5) Antimicrobial activity was tested using the following reference strains: Staphylococcus aureus ATCC 6538 (MSSA), Staphylococcus aureus ATCC 43300 (MRSA), Staphylococcus epidermidis PCM 2118, Escherichia coli ATCC 11229, Pseudomonas aeruginosa ATCC 15442, Proteus vulgaris NCTC 4635, Enterococcus faecalis ATCC 11420, and Candida albicans ATCC 10231.
(§6) A broth dilution method was used to determine minimal inhibitory concentration (MIC) for tested compounds as recommended by Clinical Laboratory Standards Institute (CLSI) guidelines. Investigated compounds were diluted in Mueller Hinton Broth 2 (Sigma-Aldrich Co., St. Louis, MO, USA) in polypropylene 96-well plates and initial inoculum 5 × 10^5 cfu/mL were incubated at 37 °C for 18 h. MIC was taken as the lowest drug concentration at which an observable growth was inhibited. […] The loopful (10 µL) of the tested sample was transferred to Tryptic Soy Agar (TSA, Becton-Dickinson, Franklin Lakes, NJ, USA) and incubated at 37 °C for 48 h. […] Drug Solutions were made fresh on the day of the assay. All experiments were performed in triplicate.

[7] = test system: Candida albicans ATCC 10231; assay: Broth dilution MIC/MFC, reference fungal strain; assay type: cell-based
Protocol: The tests were carried out using a serial dilution method, allowing the determination of MIC (minimal concentration inhibiting bacterial growth), MBC (minimal bactericidal concentration), and MFC (minimal fungicidal concentration) values.
as §5, §6

[8] = test system: clinical isolates of methicillin-resistant S. aureus (50–54) and methicillin-sensitive S. aureus (55–59); assay: Broth dilution MIC/MBC, summary over clinical S. aureus isolates; assay type: cell-based, Staphylococcus aureus
Excerpt: […]. Both MRSA and MSSA strains were derived from various human infections.
[…]. Five methicillin-resistant S. aureus strains were isolated from nose (n = 1), bronchoalveolar lavage (n = 1), sputum (n = 1), wound (n = 1), and blood (n = 1); five methicillin-susceptible S. aureus strains were isolated from throat (n = 1), bronchoalveolar lavage (n = 1), sputum (n = 1), abscess (n = 1), and blood (n = 1).
The identity of S. aureus isolates was confirmed with conventional methods and with Pastorex Staph-Plus latex agglutination kit (Bio-Rad, Marnes-la-Coquette, France) and verified applying the polymerase chain reaction (PCR) of S. aureus-specific region of the thermonuclease gene, nuc. Resistance to methicillin was first verified using cefoxitin disk (30 µg), and then, identified based on the presence of mecA gene. S. aureus ATCC®25923 (methicillin-susceptible) and S. aureus ATCC®43300 (MDR) were applied as the reference strains. Both the reference and clinical strains were stored at −80 °C, in Tryptic Soy Broth (TSB, Becton-Dickinson, Franklin Lakes, NJ, USA) supplemented with 15% glycerol.
as §6

Structure (SMILES): Cc1cc(S(=O)(=O)NC(=O)CCC2CCCCC2)c(SCc2cccc(C(F)(F)F)c2)cc1Cl [Compound 10, N-[4-Chloro-5-methyl-2-(3-trifluoromethylbenzylthio)benzenesulfonyl]-3-cyclohexylpropanamide]
- IC50 (HeLa (cervical cancer)): 94 ± 3 µM
- IC50 (MCF-7 (breast cancer)): 81 ± 3 µM
- IC50 (HCT-116 (colon cancer)): 78 ± 3 µM
- MBC/MIC ([1]; E. f. ATCC 11420): 8
- MBC ([1]; Enterococcus faecalis, ATCC11420, E. faecalis ATCC 11420, read-out: MBC): 64 µg/mL (≈ 120 µM)
- MIC ([1]; Enterococcus faecalis, ATCC11420, E. faecalis ATCC 11420, read-out: MIC): 8 µg/mL (≈ 15 µM)
- MBC/MIC ([2]; S. a. ATCC 6538): 8
- MBC ([2]; Staphylococcus aureus, S. aureus ATCC 6538, read-out: MBC): 64 µg/mL (≈ 120 µM)
- MIC ([2]; Staphylococcus aureus, S. aureus ATCC 6538, read-out: MIC): 8 µg/mL (≈ 15 µM)
- MBC/MIC ([3]; E. c. ATCC 11229): >1
- MBC ([3]; Escherichia coli, ATCC11229, E. coli ATCC 11229, read-out: MBC): > 128 µg/mL
- MIC ([3]; Escherichia coli, ATCC11229, E. coli ATCC 11229, read-out: MIC): 128 µg/mL (≈ 240 µM)
- MBC/MIC ([4]; P. v. NCTC 4635): >1
- MBC ([4]; Proteus vulgaris, NCTC4635, P. vulgaris NCTC 4635, read-out: MBC): > 128 µg/mL
- MIC ([4]; Proteus vulgaris, NCTC4635, P. vulgaris NCTC 4635, read-out: MIC): 128 µg/mL (≈ 240 µM)
- MBC/MIC ([5]; P. a. ATCC 15442): >1
- MBC ([5]; Pseudomonas aeruginosa, ATCC15442, P. aeruginosa ATCC 15442, read-out: MBC): > 128 µg/mL
- MIC ([5]; Pseudomonas aeruginosa, ATCC15442, P. aeruginosa ATCC 15442, read-out: MIC): 128 µg/mL (≈ 240 µM)
- MBC [6]: 8 to 64 µg/mL
- MIC [6]: 8 µg/mL (≈ 15 µM)
- MBC ([6]; read-out: MBC): 8 to 64 µg/mL (≈ 15 to 120 µM)
- MIC ([6]; read-out: MIC): 8 µg/mL (≈ 15 µM)
- MFC/MIC ([7]; C. a. ATCC 10231): 2
- MFC ([7]; Candida albicans, ATCC10231, C. albicans ATCC 10231, read-out: MFC): 128 µg/mL (≈ 240 µM)
- MIC ([7]; Candida albicans, ATCC10231, C. albicans ATCC 10231, read-out: MIC): 64 µg/mL (≈ 120 µM)
- MIC ([8]; Staphylococcus aureus, reference MRSA and MSSA strains as well as clinical isolates, read-out: MIC): 4 to 8 µg/mL (≈ 7.49 to 15 µM)
- MBC ([8]; Staphylococcus aureus, summary over ten clinical MRSA and MSSA isolates (Table 4), read-out: MBC): > 128 µg/mL
- MIC ([8]; Staphylococcus aureus, summary over ten clinical MRSA and MSSA isolates (Table 4), read-out: MIC): 4 µg/mL (≈ 7.49 µM)
- MIC ([8]; summary over ten clinical MRSA and MSSA isolates (Table 4)): 4 to 8 µg/mL

Reference: article PMC6981581, “N-(2-Arylmethylthio-4-Chloro-5-Methylbenzenesulfonyl)amide Derivatives as Potential Antimicrobial Agents—Synthesis and Biological Studies” (International Journal of Molecular Sciences, 2019)
